The first experiment addresses T1, ERK5 (Homo sapiens, UniProt Q13164).
T1 construct: made in house
Description: ERK5 IMAP assay (fluorescence polarisation). Type of experiment: biochemical.
Details: not given
T1 sequence (Q13164 whole entry): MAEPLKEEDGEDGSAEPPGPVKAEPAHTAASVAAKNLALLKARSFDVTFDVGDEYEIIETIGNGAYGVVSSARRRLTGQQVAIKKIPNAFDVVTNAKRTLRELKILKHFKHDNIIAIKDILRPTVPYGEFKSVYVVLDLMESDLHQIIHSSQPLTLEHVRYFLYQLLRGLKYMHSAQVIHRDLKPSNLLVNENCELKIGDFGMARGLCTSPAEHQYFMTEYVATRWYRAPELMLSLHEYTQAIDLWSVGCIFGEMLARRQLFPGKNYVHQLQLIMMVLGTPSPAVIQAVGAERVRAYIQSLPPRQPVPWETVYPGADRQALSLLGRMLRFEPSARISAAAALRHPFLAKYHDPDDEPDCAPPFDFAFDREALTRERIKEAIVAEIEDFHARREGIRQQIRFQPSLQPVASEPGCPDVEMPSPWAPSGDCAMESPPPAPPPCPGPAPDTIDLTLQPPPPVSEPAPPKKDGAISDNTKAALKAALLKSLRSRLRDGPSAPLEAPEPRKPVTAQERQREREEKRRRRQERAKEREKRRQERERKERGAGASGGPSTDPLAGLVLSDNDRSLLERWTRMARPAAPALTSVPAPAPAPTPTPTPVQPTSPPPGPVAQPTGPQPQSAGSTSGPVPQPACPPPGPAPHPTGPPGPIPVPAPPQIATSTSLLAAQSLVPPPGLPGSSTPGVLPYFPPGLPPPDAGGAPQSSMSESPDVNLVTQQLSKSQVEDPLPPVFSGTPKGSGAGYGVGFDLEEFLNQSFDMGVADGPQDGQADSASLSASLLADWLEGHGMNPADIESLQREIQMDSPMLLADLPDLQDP
The compound `O=C(Nc1ccncc1)c1cc(C(=O)c2c(F)cccc2Cl)c[nH]1` [Example 187, 4-(2-Chloro-6-fluorobenzoyl)-N-(pyridin-4-yl)-1H-pyrrole-2-carboxamide] came in with an IC50 of 602 nM.

The experiment is the same for the next values; noted with them: average (e.g. geometric mean) where more than one data point; read-out: ERK5 IC50.
`O=C(Nc1cccnc1)c1cc(C(=O)c2cc(F)ccc2F)c[nH]1` [Example 225, 4-(2,5-Difluorobenzoyl)-N-(pyridin-3-yl)-1H-pyrrole-2-carboxamide]: the IC50 was determined as 6030 nM.

On to `O=C(NC1CCNCC1)c1cc(C(=O)c2c(F)cccc2Br)c[nH]1` [Example 197, 4-(2-Bromo-6-fluorobenzoyl)-N-(piperidin-4-yl)-1H-pyrrole-2-carboxamide], for which the IC50 turned out to be 386 nM.

On to `CCCc1ncccc1NC(=O)c1cc(C(=O)c2c(Cl)ccc(Cl)c2F)c[nH]1` [Example 83, 4-(3,6-Dichloro-2-fluorobenzoyl)-N-(2-propylpyridin-3-yl)-1H-pyrrole-2-carboxamide], for which the IC50 was 3540 nM.

With `O=C(Nc1cccnc1)c1cc(C(=O)c2c(Cl)ccc(O)c2F)c[nH]1` [Example 254, 4-(6-Chloro-2-fluoro-3-hydroxybenzoyl)-N-(pyridin-3-yl)-1H-pyrrole-2-carboxamide], the IC50 turned out to be 1190 nM.

Turning to `CN1CCC(NC(=O)c2cc(C(=O)c3c(F)cccc3C3CC3)c[nH]2)CC1` [Example 204, 4-(2-Cyclopropyl-6-fluorobenzoyl)-N-(1-methylpiperidin-4-yl)-1H-pyrrole-2-carboxamide], the IC50 came out at 8230 nM.

On to `Cc1ncccc1NC(=O)c1cc(C(=O)c2c(F)cccc2Cl)c[nH]1` [Example 148, 4-(2-Chloro-6-fluorobenzoyl)-N-(2-methylpyridin-3-yl)-1H-pyrrole-2-carboxamide], for which the IC50 was 960 nM.

Regarding `Cc1ncc(NC(=O)c2cc(C(=O)c3c(F)cccc3Br)c[nH]2)cn1` [Example 155, 4-(2-Bromo-6-fluorobenzoyl)-N-(2-methylpyrimidin-5-yl)-1H-pyrrole-2-carboxamide], the IC50 was found to be 1190 nM.

`CCc1ncccc1NC(=O)c1cc(C(=O)c2c(F)cccc2Cl)c[nH]1` [Example 76, 4-(2-Chloro-6-fluorobenzoyl)-N-(2-ethylpyridin-3-yl)-1H-pyrrole-2-carboxamide]: the IC50 stood at 1580 nM.

Turning to `CCCc1ccncc1NC(=O)c1cc(C(=O)c2c(Cl)ccc(Cl)c2F)c[nH]1` [Example 95, 4-(3,6-Dichloro-2-fluorobenzoyl)-N-(4-propylpyridin-3-yl)-1H-pyrrole-2-carboxamide], the IC50 came out at 2820 nM.

Consider `CCOc1ccncc1NC(=O)c1cc(C(=O)c2c(Cl)ccc(Cl)c2F)c[nH]1` [Example 97, 4-(3,6-Dichloro-2-fluorobenzoyl)-N-(4-ethoxypyridin-3-yl)-1H-pyrrole-2-carboxamide], for which the IC50 amounted to 1380 nM.

Regarding `O=C(Nc1cc[nH]c(=O)n1)c1cc(C(=O)c2c(F)cccc2Cl)c[nH]1` [Example 146, 4-(2-Chloro-6-fluorobenzoyl)-N-(2-oxo-1,2-dihydropyrimidin-4-yl)-1H-pyrrole-2-carboxamide], the IC50 amounted to 2940 nM.

For the compound `CN1CCC(NC(=O)c2cc(C(=O)c3c(F)cccc3Br)c[nH]2)CC1` [Example 195, 4-(2-Bromo-6-fluorobenzoyl)-N-(1-methylpiperidin-4-yl)-1H-pyrrole-2-carboxamide], the IC50 came out at 289 nM.

Take `CCOc1ccc(Cl)c(C(=O)c2c[nH]c(C(=O)Nc3cccnc3)c2)c1F` [Example 256, 4-(6-Chloro-3-ethoxy-2-fluorobenzoyl)-N-(pyridin-3-yl)-1H-pyrrole-2-carboxamide]: the IC50 was determined as 116 nM.

In the case of `COc1ccncc1NC(=O)c1cc(C(=O)c2c(F)cccc2Cl)c[nH]1` [Example 90, 4-(2-Chloro-6-fluorobenzoyl)-N-(4-methoxypyridin-3-yl)-1H-pyrrole-2-carboxamide], the IC50 amounted to 2190 nM.

For the compound `Cc1ccncc1NC(=O)c1cc(C(=O)c2c(F)cccc2Cl)c[nH]1` [Example 87, 4-(2-Chloro-6-fluorobenzoyl)-N-(4-methylpyridin-3-yl)-1H-pyrrole-2-carboxamide], the IC50 is 1260 nM.

As for `CN1CCC(Nc2ncc(NC(=O)c3cc(C(=O)c4c(F)cccc4Cl)c[nH]3)cn2)CC1` [Example 23, 4-(2-Chloro-6-fluorobenzoyl)-N-(2-((1-methylpiperidin-4-yl)amino)pyrimidin-5-yl)-1H-pyrrole-2-carboxamide], the IC50 was found to be 93 nM.

As to `O=C(Nc1ccncn1)c1cc(C(=O)c2c(F)cccc2F)c[nH]1` [Example 130, 4-(2,6-Difluorobenzoyl)-N-(pyrimidin-4-yl)-1H-pyrrole-2-carboxamide], the IC50 came to 2140 nM.

Take `CC(C)(C)OC(=O)N1CCC(NC(=O)c2cc(C(=O)c3c(F)cccc3Cl)c[nH]2)CC1` [Example 193, tert-Butyl 4-(4-(2-chloro-6-fluorobenzoyl)-1H-pyrrole-2-carboxamido)piperidine-1-carboxylate]: the IC50 stood at 1080 nM.

With `O=C(Nc1cccnc1)c1cc(C(=O)c2c(F)ccc(F)c2Cl)c[nH]1` [Example 214, 4-(2-Chloro-3,6-difluorobenzoyl)-N-(pyridin-3-yl)-1H-pyrrole-2-carboxamide], the IC50 was determined as 1010 nM.

In the case of `O=C(Nc1cnc(N2CCCC2)nc1)c1cc(C(=O)c2c(F)cccc2Cl)c[nH]1` [Example 14, 4-(2-Chloro-6-fluorobenzoyl)-N-(2-(pyrrolidin-1-yl)pyrimidin-5-yl)-1H-pyrrole-2-carboxamide], the IC50 was determined as 4110 nM.

Take `O=C(Nc1cnn(Cc2ccccn2)c1)c1cc(C(=O)c2c(Cl)ccc(Cl)c2F)c[nH]1` [Example 48, 4-(3,6-Dichloro-2-fluorobenzoyl)-N-(1-(pyridin-2-ylmethyl)-1H-pyrazol-4-yl)-1H-pyrrole-2-carboxamide]: the IC50 came to 80.7 nM.

`O=C(Nc1ccnc(N2CCCC2)c1)c1cc(C(=O)c2c(F)cccc2Cl)c[nH]1` [Example 35, 4-(2-Chloro-6-fluorobenzoyl)-N-(2-(pyrrolidin-1-yl)pyridin-4-yl)-1H-pyrrole-2-carboxamide]: the IC50 worked out at 523 nM.

In the case of `COCCN(CCOC)Cc1ccc(NC(=O)c2cc(C(=O)c3c(Cl)ccc(Cl)c3F)c[nH]2)cn1` [Example 283, N-(6-((bis(2-methoxyethyl)amino)methyl)pyridin-3-yl)-4-(3,6-dichloro-2-fluorobenzoyl)-1H-pyrrole-2-carboxamide], the IC50 worked out at 117 nM.

Consider `Cn1cc(NC(=O)c2cc(C(=O)c3c(F)cccc3Cl)c[nH]2)cn1` [Example 269, 4-(2-Chloro-6-fluorobenzoyl)-N-(1-methyl-1H-pyrazol-4-yl)-1H-pyrrole-2-carboxamide], for which the IC50 turned out to be 777 nM.

With `O=C(Nc1ccnnc1)c1cc(C(=O)c2c(F)cccc2Cl)c[nH]1` [Example 138, 4-(2-Chloro-6-fluorobenzoyl)-N-(pyridazin-4-yl)-1H-pyrrole-2-carboxamide], the IC50 is 439 nM.

As for `C=Cc1ccc(F)c(C(=O)c2c[nH]c(C(=O)Nc3cncnc3)c2)c1F` [Example 166, 4-(2,6-Difluoro-3-vinylbenzoyl)-N-(pyrimidin-5-yl)-1H-pyrrole-2-carboxamide], the IC50 was determined as 1370 nM.

Another experiment has as its system ERK5 (HA-ERK5 wt activated by EGFP-MEK5D, MEF2D-Gal4/Gal4-Luc reporter) in HEK293 cells. In words: Dual-luciferase reporter assay (ERK5 reporter), reverse-transfected HEK293 cells. To be noted: Homo sapiens, HEK293, read-out: ERK 5 Reporter Assay. Background: Reporter assays use an easily measured gene product as a stand-in for the process of interest.
Description: Dual-Luciferase Reporter Assay
Trypsinizing of Adherent Cell Colonies
Cells were regularly passaged in order to maintain optimum colony sizes on plates. In order to do this, and to harvest cells for use in the dual-luciferase reporter assay, adherent cells were lifted from tissue culture dishes. Cell media was removed via aspiration, and the cell monolayer was washed with phosphate buffered saline (PBS) solution (10 mL), which was then aspirated.
Reverse Transfection of HEK293 Cells
Preparation of EGFP Control (C3) Working Solution (for 1×96 Well Plate)
Preparation of HEK293 Cells for Reverse Transfection
Trypsinized HEK293 cells were re-suspended in 19 mL of fresh cell media and counted using haemocytometry. Cells were then diluted with fresh cell media to achieve a final cell concentration of 2×10^5 cells/mL. 1237.5 μL and 7425 μL of this cell media was added to the C3 and 5D working solutions respectively. 100 μL of the transfected cells were then aliquoted into the appropriate wells in a 96-well opaque sided tissue culture plate, and incubated at 37° C. for 6 h.
Addition of Compounds to HEK293 Cells
4 compounds was assayed per 96-well plate. For each compound, 1 mL of growth media was added to eight 1.5 mL Eppendorf® tubes. 6 μL of DMSO was added to two tubes for C3 and blank 5D wells, and 6 μL of the relevant compound stock solution was added to the 6 remaining tubes. […] Solutions of drug in media were thoroughly mixed, and 100 μL of the relevant compound was transferred (in triplicate) to the 96-well plate containing transfected HEK293 cells using an electronic multichannel pipette with variable tip spacing. Sealed plates were incubated at 37° C. for 24 h. Final compound concentrations were as follows; 30 μM, 10 μM, 3 μM, 1 μM and 0.3 μM.
15 mL of 1× passive lysis buffer (PLB) was prepared using 5×PLB (Dual-Luciferase Reporter Assay System, Promega® E1960), diluting with H2O. Assay plates prepared were removed from the incubator and the growth media removed by aspiration.
With `O=C(Nc1ccncc1)c1cc(C(=O)c2c(F)cccc2Cl)c[nH]1` [Example 187, 4-(2-Chloro-6-fluorobenzoyl)-N-(pyridin-4-yl)-1H-pyrrole-2-carboxamide], the IC50 came out at 2330 nM.

As to `O=C(Nc1cccnc1)c1cc(C(=O)c2cc(F)ccc2F)c[nH]1` [Example 225, 4-(2,5-Difluorobenzoyl)-N-(pyridin-3-yl)-1H-pyrrole-2-carboxamide], the IC50 is 4770 nM.

On to `O=C(NC1CCNCC1)c1cc(C(=O)c2c(F)cccc2Br)c[nH]1` [Example 197, 4-(2-Bromo-6-fluorobenzoyl)-N-(piperidin-4-yl)-1H-pyrrole-2-carboxamide], for which the IC50 turned out to be 22000 nM.

Consider `O=C(NC1CCNCC1)c1cc(C(=O)c2c(Cl)ccc(Cl)c2F)c[nH]1` [Example 4, 4-(3,6-Dichloro-2-fluorobenzoyl)-N-(piperidin-4-yl)-1H-pyrrole-2-carboxamide], for which the IC50 came out at 2340 nM.

The values above are taken from patent US10344017B2, “Pyrrolcarboxamide derivatives for the inhibition of ERK5” (CANCER RESEARCH TECHNOLOGY LIMITED, priority 2014, dated 2019).
